Laboratory results: paper PMC4540177 (Bioorganic & medicinal chemistry letters, 2013)

Experiments:
Rat pharmacokinetics = assay type: in vivo, Sprague-Dawley rats
Mouse brain penetration = assay type: in vivo, C57Bl6 mice

| SMILES | half live (in words) (Rat pharmacokinetics; rat) | oral exposure (in words) (Rat pharmacokinetics; rat) | brain penetration (in words) (Mouse brain penetration) | in vivo properties (in words) (Rat pharmacokinetics; rat pk) |
| --- | --- | --- | --- | --- |
| Cc1ncn(-c2ccc(Nc3cc(-c4nocc4-c4cnn(C)c4)ccn3)cc2)n1 [Compound 27] | short half live | good oral exposure | poor brain penetration | – |
| Cc1ncn(-c2ccc(Nc3cc(-c4nocc4-c4cn[nH]c4C)ccn3)cc2)n1 [Compound 28] | – | – | – | poor in vivo properties |
